Data from patent publication US20130079345A1, “[…] ACTIVE DISUBSTITUTED TRIAZINE DERIVATIVES” (BAYER INTELLECTUAL PROPERTY GMBH, priority 2010, published 2013).

Key:
CDK9/Cyclin T1 = biological target: T1, CDK9/Cyclin T1 (Homo sapiens, UniProt P50750); assay: LanthaScreen Eu Kinase Binding Assay, CDK9/Cyclin T1; settings: tracer 236, read-out: Affinity (Kd) CDK9/Cyclin T1
T1 construct: purchased Invitrogen
In short: (§1)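 TR-FRET competition binding with Alexa Fluor 647 tracer and Eu-anti-GST antibody; e.g. CDK2/Cyclin A 15 nM with tracer 236 60 nM (working solutions). Kinase buffer: HEPES 20 mM pH 8.0, MgCl2 10 mM, DTT 1 mM, Brij-35 0.01%; 8-point 1:3 series, 1 h at room temperature; Kd from sigmoidal dose-response curves.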

CDK9/Cyclin K = biological target: T2, CDK9/Cyclin K (Homo sapiens, UniProt P50750); assay: LanthaScreen Eu Kinase Binding Assay, CDK9/Cyclin K; settings: tracer 236, read-out: Affinity (Kd) CDK9/Cyclin K
T2 construct: purchased Invitrogen
In short: as §1

CDK7/CyclinH/Mat1 = biological target: T3, CDK7/CyclinH/Mat1 (Homo sapiens, UniProt P50613); assay: LanthaScreen Eu Kinase Binding Assay, CDK7; settings: tracer 236, read-out: Affinity (Kd) CDK7
T3 construct: purchased Carna Biosciences
In short: as §1

CDK2/CyclinA = biological target: T4, CDK2/CyclinA (Homo sapiens, UniProt P24941); assay: LanthaScreen Eu Kinase Binding Assay, CDK2; settings: tracer 236, read-out: Affinity (Kd) CDK2
T4 construct: purchased Proqinase
In short: as §1

CDK9 = biological target: T5, CDK9 (Homo sapiens, UniProt P50750); assay: Lance Ultra KinaSelect Assay, CDK9; format: biochemical; settings: read-out: Inhibition (IC50) CDK9
T5 construct: purchased Invitrogen
Protocol: This protocol describes how the Lance Ultra KinaSelect Assay was performed to determine half maximal inhibitory concentration (IC50) of compounds of general formula (I) and CDK/Cyclin complexes. The principle behind this enzymatic assay is based upon the phosphorylation of the ULight-Peptide Substrat. It is detected by using a specific EU-labeled anti-phospho peptide antibody. The binding of the Eu-labeled anti-phospho peptide antibody to the phosphorylated U Light labeled peptide gives rise to a FRET-signal. Binding of an inhibitor to the kinase prevents phosphorylation of the ULight-MBP Substrat, resulting in a loss of FRET.
The compounds of general formula (I) summarized in Table 5 were diluted from a 10 mM DMSO stock solution 1:10 in a total volume of 15 μL DMSO. This compound predilution was then serial diluted 1:3 over 8 steps in DMSO and briefly spun down. Each compound solution was now diluted 1:20 in Enzymatic Buffer (HEPES: 50 mM, pH: 7.5; MgCl2: 10 mM; EGTA: 1 mM; DTT: 2 mM; Tween-20: 0.01%), mixed thoroughly and spun down. For every sample, 2 μL of the diluted compound were mixed with 6 μL CDK/Cyclin/Substrat solution and […] in a well of a small volume 384 well plate (Corning Incorporated, Corning, N.Y., USA; order no. 3673). […] For positive controls, in each well 2 μL of DMSO solution (1% final DMSO assay concentration) was mixed with 6 μL CDK/Cyclin/Substrat (appropriate final concentration see Table 3) and 2 μL Tracer ATP solution (appropriate final concentration see Table 3). Positive and negative controls were calculated from at least 8 different sample wells. The 384 well plates were mixed in a Teleshaker plate mixer (Beckman Coulter, Brea, Calif., USA) at 2000 rpm for 40 sec, and incubated for 1 h at room temperature. Before reading, 10 μL detection buffer (Lance Detection Buffer 1×; EDTA: […]; Eu-Anti-P-MBP: see Table 3) was added. The FRET signal was measured at 340 nm excitation, 665 nm and 615 nm emission (for the kinase tracer and LanthaScreen Eu-AB, respectively) with an Envision spectrophotometer (Perkin Elmer, Waltham, Mass., USA) with 50 μs delay and 300 μs integration time. IC50 values were determined from the sigmoidal dose response curves with the software Quattro Workflow (Quattro GmbH, Munich, Germany).

MDAMB468 cells = assay: Cell viability assay, MDAMB468 cells; format: cell-based; settings: Homo sapiens, MDA-MB-468, 72 h, Cell Titer Glo
Protocol: (§2) HeLa- or MDAMB468-Cells or MATU ADR, H460, DU145, CACO-2 or B16F10 cells were maintained in RPMI 1640 or McCoy's 5A cell culture medium+glutamine (PAN Biotech GmbH, Aidenbach, Germany; order no. P04-22100; P04-05500) supplemented with 10% fetal calf serum “Gold” (PAA Laboratories GmbH, Pasching, Austria; order no. A15-151) and grown at 37° C., 5% CO2. For the cell viability assay, cells were seeded with a density of 400 (Hela cells, DSMZ Braunschweig order no. ACC57) or 800 (MDAMB468 cells, ATCC order no. HTB-132) per well in 25 μL in 384-well plates (Greiner Bio-One, Frickenhausen, Germany; order no. 781080). After overnight incubation at 37° C./5% CO2, 25 nL or 75 nL compound were added to each sample well by using BIOMEK FXP Laboratory Automation Workstation (Beckman Coulter, USA). Wells with cells and 0.1% or 0.3% DMSO in culture medium were used as positive controls, wells with cells and 10 μM staurosporine in culture medium were used as negative controls. The cells were incubated with the compounds for 72 h at 37° C./5% CO2. For measurement of cell viability […] Cell Titer Glo reagent (Promega, Madison, USA; order no. G7573), 1:2 diluted with cell culture medium, was added to each well. The 384well-plates were placed for 2 min on an orbital microplate shaker and incubated for further 10 min at room temperature to stabilize the luminescence signal. Luminescence was measured by Envision Plate Reader (Perkin Elmer, USA). EC50 values were calculated with the software Excel Fit (IDBS, Guildford, UK) from 3-fold dilution series comprising at least 8 concentrations in duplicates.

CDK2/CycE = biological target: T6, CDK2/CycE (Homo sapiens, UniProt P24941); assay: CDK2/CycE kinase assay (TR-FRET); format: biochemical; settings: ATP 10 μM, values given in μM
T6 construct: GST; purchased ProQinase GmbH (Freiburg, Germany); host or cells: insect cells (Sf-9)
Description: CDK2/CycE-inhibitory activity of compounds of the present invention was quantified employing the CDK2/CycE TR-FRET assay as described in the following paragraphs.
Recombinant fusion proteins of glutathione S-transferase (GST) and human CDK2 and of GST and human CycE, expressed in insect cells (Sf-9) and purified by glutathion-sepharose affinity chromatography, were purchased from ProQinase GmbH (Freiburg, Germany). A biotinylated peptide biotin-Ttds-[…] (C-terminus in amide form), which can be purchased from e.g the company JERINI Peptide Technologies (Berlin, Germany), was used as a substrate for the kinase reaction.
For the assay, 50 nl of a 100-fold concentrated solution of the test compound in DMSO was pipetted into a well of a black low-volume 384-well microtiter plate (Greiner Bio-One, Frickenhausen, Germany), 2 μl of a solution of CDK2/CycE in aqueous assay buffer [50 mM Tris/HCl pH 8.0], 10 mM MgCl2, 1.0 mM dithiothreitol, 0.1 mM sodium ortho-vanadate, 0.01% (v/v) Nonidet-P40 (Sigma)] were added. The mixture was incubated at 22° C. for 15 min to allow pre-binding of the test compounds to the enzyme before the start of the kinase reaction. […] The resulting mixture was incubated at 22° C. for 25 minutes. The concentration of CDK2/CycE was adjusted depending on the activity of the enzyme lot and was chosen appropriately for measurements in the linear range of the assay. Typical concentrations were in the range of 130 ng/ml. The reaction was stopped by the addition of 5 μl of a solution of TR-FRET detection reagents (0.2 μM streptavidine-XL and 1 nM anti-RB(pSer807/pSer811)-antibody from BD Pharmingen [#558389] and 1.2 nM LANCE EU-W1024 labeled anti-mouse IgG antibody [Perkin-Elmer, product no. AD0077]) in an aqueous EDTA-solution (100 mM EDTA, 0.2% (w/v) bovine serum albumin in 100 mM HEPES/NaOH, pH 7.0).
The resulting mixture was incubated at 22° C. for one hour to allow the formation of a complex between the phosphorylated biotinylated peptide and the detection reagents. Subsequently, the amount of phosphorylated substrate was evaluated by measuring the resonance energy transfer from the Eu-chelate to the streptavidine-XL. Therefore, the fluorescence emissions at 620 nm and 665 nm after excitation at 350 nm were measured in a high time-resolved fluorometry (HTRF) reader, e.g. a Rubystar (BMG Labtechnologies, Offenburg, Germany) or a Viewlux (Perkin-Elmer). The ratio of the emissions at 665 nm and at […] was taken as a measure for the amounts of phosphorylated substrate. The data were normalised, i.e. enzyme reaction without inhibitor corresponds to 0% inhibition, and all other assay components in the absence of the enzyme correspond to 100% inhibition. IC50 values were calculated by a 4-parameter fit using in-house software.

HeLa cells = assay: Cell viability, HeLa cells; format: cell-based; settings: Homo sapiens
Protocol: as §2
Cultivated tumour cells (NCl-H460, human non-small cell lung carcinoma cells, ATCC HTB-177; DU 145, hormone-independent human prostate carcinoma cells, ATCC HTB-81; HeLa-MaTu, human cervical carcinoma cells, EPO-GmbH, Berlin; HeLa-MaTu-ADR, multidrug-resistant human cervical carcinoma cells, EPO-GmbH, Berlin; HeLa human cervical tumour cells, ATCC CCL-2; Caco-2 human colorectal carcinoma, ATCC HTB-37; B16F10 mouse melanoma cells, ATCC CRL-6475) were plated at a density of 5,000 cells/well (DU145, HeLa-MaTu-ADR), 3,000 cells/well (NCl-H460, HeLa-MaTu, HeLa), 1,500 cells/well (Caco-2), or 1,000 cells/well (B16F10) in a 96-well multititer plate in 200 μL of their respective growth medium supplemented with 10% fetal calf serum. After 24 hours, the cells of one plate (zero-point plate) were stained with crystal violet (see below), while the medium of the other plates was replaced by fresh culture medium (200 μl), to which the test substances were added in various concentrations (0 μM as well as in the range of 0.001 to 10 μM; the final concentration of the solvent dimethyl sulfoxide was 0.5%). The cells were incubated in the presence of test substances for 4 days. Cell proliferation was determined by staining the cells with crystal violet: The cells were fixed by adding 20 μl/measuring point of an 11% glutaric aldehyde solution at room temperature for 15 minutes. After three washing cycles of the fixed cells with water, the plates were dried at room temperature. The cells were stained by adding 100 μl/measuring point of a 0.1% crystal violet solution (pH 3.0). After three washing cycles of the stained cells with water, the plates were dried at room temperature. The dye was dissolved by adding 100 μl/measuring point of a 10% acetic acid solution. The extinction was determined by photometry at a wavelength of 595 nm. The change of cell number, in percent, was calculated by normalization of the measured values to the extinction values of the zero-point plate (equivalent to 0%) and the extinction of the untreated (0 μm) cells (equivalent to 100%). The IC50 values were determined by means of a 4 parameter fit using the company's own software.

T1 sequence (P50750 whole entry): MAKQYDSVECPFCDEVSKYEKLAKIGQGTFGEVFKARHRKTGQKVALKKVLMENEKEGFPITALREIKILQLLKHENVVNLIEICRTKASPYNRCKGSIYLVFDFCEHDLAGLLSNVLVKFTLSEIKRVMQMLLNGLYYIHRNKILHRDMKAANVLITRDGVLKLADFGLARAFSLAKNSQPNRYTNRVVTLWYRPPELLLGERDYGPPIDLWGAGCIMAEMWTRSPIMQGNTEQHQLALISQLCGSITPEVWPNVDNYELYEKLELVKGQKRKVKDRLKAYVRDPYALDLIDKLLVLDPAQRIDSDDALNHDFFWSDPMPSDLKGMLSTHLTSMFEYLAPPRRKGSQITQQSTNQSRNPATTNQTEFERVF
T1 sequence (O60563 whole entry partner): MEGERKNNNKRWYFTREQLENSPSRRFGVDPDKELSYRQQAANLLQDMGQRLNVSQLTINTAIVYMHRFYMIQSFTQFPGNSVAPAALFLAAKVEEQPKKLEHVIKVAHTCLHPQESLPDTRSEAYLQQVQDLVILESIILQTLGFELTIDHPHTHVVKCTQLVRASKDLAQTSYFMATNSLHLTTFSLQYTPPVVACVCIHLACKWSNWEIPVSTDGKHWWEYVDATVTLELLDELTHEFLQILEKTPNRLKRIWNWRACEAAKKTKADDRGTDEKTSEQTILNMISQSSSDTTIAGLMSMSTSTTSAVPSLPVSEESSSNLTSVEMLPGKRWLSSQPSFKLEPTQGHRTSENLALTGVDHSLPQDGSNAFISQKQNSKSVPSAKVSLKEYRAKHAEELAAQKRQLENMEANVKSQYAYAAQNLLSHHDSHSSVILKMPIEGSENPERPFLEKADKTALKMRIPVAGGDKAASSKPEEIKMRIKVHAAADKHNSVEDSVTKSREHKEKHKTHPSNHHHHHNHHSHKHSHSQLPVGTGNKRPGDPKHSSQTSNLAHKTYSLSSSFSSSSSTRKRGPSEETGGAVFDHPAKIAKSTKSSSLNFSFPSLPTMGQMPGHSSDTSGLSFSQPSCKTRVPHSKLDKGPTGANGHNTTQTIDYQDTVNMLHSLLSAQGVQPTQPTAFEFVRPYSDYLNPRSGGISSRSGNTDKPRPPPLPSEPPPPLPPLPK
T5 sequence (P50750 whole entry): as the sequence (P50750 whole entry) above
T2 sequence (P50750 whole entry): as above
T2 sequence (O75909 whole entry partner): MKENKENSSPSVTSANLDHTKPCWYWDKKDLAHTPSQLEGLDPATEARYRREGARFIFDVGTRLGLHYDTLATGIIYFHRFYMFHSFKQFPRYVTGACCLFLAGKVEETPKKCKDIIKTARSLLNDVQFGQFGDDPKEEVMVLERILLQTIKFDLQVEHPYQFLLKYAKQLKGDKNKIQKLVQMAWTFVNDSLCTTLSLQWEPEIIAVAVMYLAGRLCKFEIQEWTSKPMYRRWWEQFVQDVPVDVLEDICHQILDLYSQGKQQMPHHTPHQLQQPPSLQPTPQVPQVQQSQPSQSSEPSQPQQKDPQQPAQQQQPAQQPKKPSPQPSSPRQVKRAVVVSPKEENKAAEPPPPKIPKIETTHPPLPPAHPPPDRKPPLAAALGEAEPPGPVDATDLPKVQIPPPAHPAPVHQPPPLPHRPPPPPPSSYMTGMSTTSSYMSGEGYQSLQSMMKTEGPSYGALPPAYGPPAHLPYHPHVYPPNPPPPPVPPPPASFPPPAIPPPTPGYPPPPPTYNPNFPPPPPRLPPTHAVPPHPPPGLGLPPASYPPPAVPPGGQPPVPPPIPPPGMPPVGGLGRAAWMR
T3 sequence (P50613 whole entry): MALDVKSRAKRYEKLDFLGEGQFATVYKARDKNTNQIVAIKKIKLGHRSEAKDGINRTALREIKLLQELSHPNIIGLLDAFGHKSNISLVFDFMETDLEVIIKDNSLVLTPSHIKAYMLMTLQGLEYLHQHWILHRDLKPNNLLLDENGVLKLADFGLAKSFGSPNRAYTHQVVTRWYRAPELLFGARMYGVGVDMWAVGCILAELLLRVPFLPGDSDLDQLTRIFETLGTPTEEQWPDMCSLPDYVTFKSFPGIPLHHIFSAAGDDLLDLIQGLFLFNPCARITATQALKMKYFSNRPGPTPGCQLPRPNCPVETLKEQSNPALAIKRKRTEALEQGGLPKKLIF
T3 sequence (P51946 whole entry partner): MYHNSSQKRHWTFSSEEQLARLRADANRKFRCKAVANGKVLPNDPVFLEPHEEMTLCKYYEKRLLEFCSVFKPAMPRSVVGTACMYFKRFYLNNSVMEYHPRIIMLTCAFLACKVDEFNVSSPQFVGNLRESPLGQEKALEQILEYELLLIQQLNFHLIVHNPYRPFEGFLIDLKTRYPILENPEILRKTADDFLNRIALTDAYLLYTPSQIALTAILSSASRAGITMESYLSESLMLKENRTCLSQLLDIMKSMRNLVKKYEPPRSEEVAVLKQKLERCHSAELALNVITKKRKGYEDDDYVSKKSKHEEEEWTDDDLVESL
T3 sequence (P51948 whole entry partner): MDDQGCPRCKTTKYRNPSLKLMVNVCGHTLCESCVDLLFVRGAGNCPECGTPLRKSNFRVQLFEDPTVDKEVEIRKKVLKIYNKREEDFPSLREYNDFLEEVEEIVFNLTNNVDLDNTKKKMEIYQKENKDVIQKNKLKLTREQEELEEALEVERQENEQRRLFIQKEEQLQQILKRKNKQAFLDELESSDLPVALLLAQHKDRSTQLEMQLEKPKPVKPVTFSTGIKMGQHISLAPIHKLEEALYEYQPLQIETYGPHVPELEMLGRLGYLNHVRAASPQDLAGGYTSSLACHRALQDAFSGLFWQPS

Kd (CDK9/Cyclin T1)	Kd (CDK9/Cyclin K)	Kd (CDK7/CyclinH/Mat1)	Kd (CDK2/CyclinA)	IC50 (CDK9)	IC50 (MDAMB468 cells)	IC50 (CDK2/CycE)	IC50 (HeLa cells)	SMILES
0.136 µM	0.301 µM	> 10 µM	2.16 µM	0.837 µM	23 µM	–	–	COc1ccccc1-c1ncnc(Nc2cccc(C(N)=O)c2)n1 [Compound E1, 3-[(4-(2-Methoxyphenyl)-1,3,5-triazin-2-yl)amino]benzamide]
–	–	–	–	–	–	2.1 µM	3.4 µM	COc1ccccc1-c1cc(Nc2cccc(CS(N)(=O)=O)c2)ncn1 [Ref1, C-{3-[6-(2-Methoxy-phenyl)-pyrimidin-4-ylamino]-phenyl}-methanesulfonamide, reference compound]
